# Laboratory results from patent US7115658B2 (priority 2002, dated 2006).
# Tested on: not given
# Assay: not given
# Conditions: not given
row,SMILES,melting point [°C]
1,"Cc1cc(SC2=C(O)CC(CCc3ccc(O)cc3)(C3CCCC3)OC2=O)c(C(C)(C)C)cc1NS(=O)(=O)c1ccccc1 (racemic) [Example 141, (+/−)N-(5-tert-butyl-{6-cyclopentyl-4-hydroxy-6-[2-(4-hydroxy-phenyl)-ethyl]-2-oxo-5,6-dihydro-2H-pyran-3-ylsulfanyl}-2-methyl-phenyl)-benzenesulfonamide]",125 to 127
2,"O=C1CC(=O)OC(CCc2ccccc2)(C2CCCC2)C1 (stereo not shown) [Example 35, 6-Cyclopentyl-6-phenethyl-dihydro-pyran-2,4-dione]",96 to 99
3,"CC(=O)Nc1cc(C(C)(C)C)c(SC2=C(O)CC(CCc3ccc(O)cc3)(C3CCCCC3)OC2=O)cc1C (stereo not shown) [Example 142, N-(5-tert-butyl4-{6-cyclohexyl-4-hydroxy-6-[2-(4-hydroxy-phenyl)-ethyl]-2-oxo-5,6-dihydro-2H-pyran-3-ylsulfanyl)-2-methyl-phenyl)-acetamide]",> 154
4,"Cc1cc(SC2=C(O)CC(CCc3ccc(O)cc3)(C3CCCCC3)OC2=O)c(C(C)(C)C)cc1N (stereo not shown) [Example 143, 3-(4-Amino-2-tert-butyl-5-methyl-phenylsulfanyl)-6-cyclohexyl-4-hydroxy-6-[2-(4-hydroxy-phenyl)-ethyl]-5,6-dihydro-pyran-2-one]",> 133
5,CCN(C1=C(O)C[C@@](CCc2ccc(O)cc2)(C2CCCC2)OC1=O)c1ccccc1 [Example 158],90 to 92

# Target: T1, Recombinant HCV polymerase (Hepatitis C virus genotype 1b, UniProt P26663)
# T1 construct: 2.5 pmoles (0.15 μg) HCV polymerase protein
# Assay: HCV Polymerase Inhibition Assay
# Format: biochemical
# Conditions: primer/template-directed transcription, 30 minutes at 30° C.; category symbol
# How it was run: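 Recombinant genotype 1b polymerase (2.5 pmol) extended biotin-dG12 on poly(rC)300 with 1 μM GTP plus α-32P-GTP, pH 7.2, 30 min at 30 °C, 1% DMSO final; DE-filter-bound product counted. IC50 fitted from triplicate cpm, refitted with enzyme-concentration (30 nM) tight-binding equation when below 200 nM.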
# T1 sequence (P26663 2420-3010): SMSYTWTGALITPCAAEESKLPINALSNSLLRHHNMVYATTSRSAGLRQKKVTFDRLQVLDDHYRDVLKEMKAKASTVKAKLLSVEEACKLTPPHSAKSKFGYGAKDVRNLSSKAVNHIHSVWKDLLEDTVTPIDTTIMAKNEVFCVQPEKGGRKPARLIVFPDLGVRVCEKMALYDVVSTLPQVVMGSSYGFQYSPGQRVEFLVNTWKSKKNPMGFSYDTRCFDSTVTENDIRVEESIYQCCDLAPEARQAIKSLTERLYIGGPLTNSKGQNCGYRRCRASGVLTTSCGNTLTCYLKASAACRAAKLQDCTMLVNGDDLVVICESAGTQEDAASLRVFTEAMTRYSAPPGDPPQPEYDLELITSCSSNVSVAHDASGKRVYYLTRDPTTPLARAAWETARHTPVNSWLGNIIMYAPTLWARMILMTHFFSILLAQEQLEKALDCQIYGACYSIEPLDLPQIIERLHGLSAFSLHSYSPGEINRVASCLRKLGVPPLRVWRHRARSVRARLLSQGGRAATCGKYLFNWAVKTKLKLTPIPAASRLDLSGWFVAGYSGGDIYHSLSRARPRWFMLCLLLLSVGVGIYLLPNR
row,SMILES,IC50 [µM]
1,"Cc1cc(SC2=C(O)CC(CCc3ccc(O)cc3)(C3CCCC3)OC2=O)c(C(C)(C)C)cc1NS(=O)(=O)c1ccccc1 (racemic) [Example 141, (+/−)N-(5-tert-butyl-{6-cyclopentyl-4-hydroxy-6-[2-(4-hydroxy-phenyl)-ethyl]-2-oxo-5,6-dihydro-2H-pyran-3-ylsulfanyl}-2-methyl-phenyl)-benzenesulfonamide]",1 to 10
2,"O=C1CC(=O)OC(CCc2ccccc2)(C2CCCC2)C1 (stereo not shown) [Example 35, 6-Cyclopentyl-6-phenethyl-dihydro-pyran-2,4-dione]",10 to 50
3,"Cc1ccc(S(=O)(=O)Oc2cc(C(C)(C)C)c(SC3=C(O)CC(CCc4ccc(O)cc4)(C4CCCCC4)OC3=O)cc2C)cc1 (stereo not shown) [Example 137, Toluene-4-sulfonic acid 5-tert-butyl-4-(6-Cyclohexyl-4-hydroxy-6-[2-(4-hydroxy-phenyl)-ethyl]-2-oxo-5,6-dihydro-2H-pyran-3-ylsulfanyl)-2-methyl-phenyl ester]",10 to 50
4,"Cc1cc(SC2=C(O)CC(CCc3cc(Cl)c(N)c(Cl)c3)(C(C)C)OC2=O)c(C(C)(C)C)cc1N (stereo not shown) [Example 138, 3-(4-Amino-2-tert-butyl-5-methyl-phenylsulfanyl)-6-[2-(4-amino-3,5-dichloro-phenyl)-ethyl]-4-hydroxy-6-isopropyl-5,6-dihydro-pyran-2-one]",10 to 50
5,"Cc1cc(SC2=C(O)CC(CCc3ccc(O)cc3)(C3CCCCC3)OC2=O)c(C(C)(C)C)cc1OS(=O)(=O)c1ccc(C#N)cc1 (stereo not shown) [Example 139, 4-Cyano-benzenesulfonic acid 5-tert-butyl-4-{6-cyclohexyl-4-hydroxy-6-[2-(4-hydroxy-phenyl)-ethyl]-2-oxo-5,6-dihydro-2H-pyran-3-ylsulfanyl}-2-methyl-phenyl ester]",1 to 10
6,"CC(=O)Nc1cc(C(C)(C)C)c(SC2=C(O)CC(CCc3ccc(O)cc3)(C3CCCCC3)OC2=O)cc1C (stereo not shown) [Example 142, N-(5-tert-butyl4-{6-cyclohexyl-4-hydroxy-6-[2-(4-hydroxy-phenyl)-ethyl]-2-oxo-5,6-dihydro-2H-pyran-3-ylsulfanyl)-2-methyl-phenyl)-acetamide]",> 50
7,"Cc1cc(SC2=C(O)CC(CCc3ccc(O)cc3)(C3CCCCC3)OC2=O)c(C(C)(C)C)cc1N (stereo not shown) [Example 143, 3-(4-Amino-2-tert-butyl-5-methyl-phenylsulfanyl)-6-cyclohexyl-4-hydroxy-6-[2-(4-hydroxy-phenyl)-ethyl]-5,6-dihydro-pyran-2-one]",1 to 10
8,"Cc1cc(SC2=C(O)CC(CCC(C)C)(C3CCCC3)OC2=O)c(C(C)(C)C)cc1CO (stereo not shown) [Example 144, 3-(2-tert-butyl-4-hydroxymethyl-5-methyl-phenylsulfanyl)-6-cyclopentyl-4-hydroxy-6-(3-methyl-butyl)-5,6-dihydro-pyran-2-one]",> 50
9,"Cc1cc(SC2=C(O)CC(CCC3CCCC3)(C3CCCC3)OC2=O)c(C(C)(C)C)cc1CO (stereo not shown) [Example 145, 3-(2-tert-butyl-4-hydroxymethyl-5-methyl-phenylsulfanyl)-6-cyclopentyl-6-(2-cyclopentyl-ethyl)-4-hydroxy-5,6-dihydro-pyran-2-one]",10 to 50
10,"Cc1cc(SC2=C(O)CC(CCc3ccc(O)cc3)(C3CCCC3)OC2=O)c(C(C)(C)C)cc1C(N)=O (stereo not shown) [Example 146, 5-tert-butyl-4-{6-Cyclopentyl-4-hydroxy-6-[2-(4-hydroxy-phenyl)-ethyl]-2-oxo-5,6-dihydro-2H-pyran-3-ylsulfanyl}-2-methyl-benzamide]",1 to 10
11,"O=C1C=C(O)CC(CCC2CCCC2)(C2CCCC2)O1 (stereo not shown) [Example 150, 6-Cyclopentyl-6-(2-cyclopentyl-ethyl)-4-hydroxy-5,6-dihydro-pyran-2-one]",10 to 50
12,"CC(C)CCC1(C2CCCC2)CC(O)=CC(=O)O1 (stereo not shown) [Example 151, 6-Cyclopentyl-4-hydroxy-6-(3-methyl-butyl)-5,6-dihydro-pyran-2-one]",> 50
13,"Cc1cc(SC2=C(O)C[C@@](CCc3cccc(O)c3)(C3CCCC3)OC2=O)c(C(C)(C)C)cc1CO [Example 152, (S)-3-(2-tert-butyl-4-hydroxymethyl-5-methyl-phenylsulfanyl)-6-cyclopentyl-4-hydroxy-6-[2-(3-hydroxy-phenyl)-ethyl]-5,6-dihydro-pyran-2-one]",1 to 10
14,"Cc1cc(SC2=C(O)C[C@](CCc3cccc(O)c3)(C3CCCC3)OC2=O)c(C(C)(C)C)cc1CO [Example 153, (R)-3-(2-tert-butyl-4-hydroxymethyl-5-methyl-phenylsulfanyl)-6-cyclopentyl-4-hydroxy-6-[2-(3-hydroxy-phenyl)-ethyl]-5,6-dihydro-pyran-2-one]",< 1
15,"Cc1cc(SC2=C(O)CC(CCc3ccc(O)cc3)(c3ccccc3)OC2=O)c(C(C)(C)C)cc1CO (stereo not shown) [Example 154, 3-(2-tert-butyl-4-hydroxymethyl-5-methyl-phenylsulfanyl)-4-hydroxy-6-[2-(4-hydroxy-phenyl)-ethyl]-6-phenyl-5,6-dihydro-pyran-2-one]",> 50
16,"O=C1O[C@](CCc2cccc(O)c2)(C2CCCC2)CC(O)=C1N(c1ccccc1)c1ccccc1 [Example 156, (S)-6-Cyclopentyl-3-diphenylamino-4-hydroxy-6-[2-(3-hydroxy-phenyl)-ethyl]-5,6-dihydro-pyran-2-one]",10 to 50

row,SMILES,IC50 [µM]
1,"CCCCN(C1=C(O)C[C@@](CCc2cccc(O)c2)(C2CCCC2)OC1=O)c1ccccc1 [Example 157, (S)-3-(butyl-phenyl-amino)-6-Cyclopentyl-4-hydroxy-6-[2-(3-hydroxy-phenyl)-ethyl]-5,6-dihydro-pyran-2-one]",1 to 10
2,"COc1cccc(CC2C(=O)CC(CCc3ccc(OC)cc3OC)(C3CCCC3)OC2=O)c1 (stereo not shown) [Example 162, 6-Cyclopentyl-6-[2-(2,4-dimethoxy-phenyl)-ethyl]-3-(3-methoxy-benzyl)-dihydro-pyran-2,4-dione]",1 to 10
3,"COc1ccc(CCC2(C3CCCC3)CC(=O)C(Oc3ccccc3)C(=O)O2)c(OC)c1 (stereo not shown) [Example 163, 6-Cyclopentyl-6-[2-(2,4-dimethoxy-phenyl)-ethyl]-3-phenoxy-dihydro-pyran-2,4-dione]",10 to 50
4,"COc1ccc(CCC2(C3CCCC3)CC(=O)C(Oc3ccc(Cl)cc3)C(=O)O2)c(OC)c1 (stereo not shown) [Example 164, 3-(4-Chloro-phenoxy)-6-cyclopentyl-6-[2-(2,4-dimethoxy-phenyl)-ethyl]-dihydro-pyran-2,4-dione]",10 to 50
5,"COc1ccc(CCC2(C3CCCC3)CC(=O)C(C(C)=O)C(=O)O2)c(OC)c1 (stereo not shown) [Example 166, 3-Acetyl-6-cyclopentyl-6-[2-(2,4-dimethoxy-phenyl)-ethyl]-dihydro-pyran-2,4-dione]",10 to 50
6,"CC(=O)C1C(=O)CC(CCc2cccc(Cl)c2)(C2CCCC2)OC1=O (stereo not shown) [Example 167, 3-Acetyl-6-[2-(3-chloro-phenyl)-ethyl]-6-cyclopentyl-dihydro-pyran-2,4-dione]",10 to 50
7,"COc1ccc(CCC2(C3CCCC3)CC(=O)C(C(C)=O)C(=O)O2)cc1 (stereo not shown) [Example 168, 3-Acetyl-6-cyclopentyl-6-[2-(4-methoxy-phenyl)-ethyl]-dihydro-pyran-2,4-dione]",10 to 50
8,"COc1ccc(CCC2(C3CCCC3)CC(=O)C(C(=O)Cc3ccccc3)C(=O)O2)c(OC)c1 (stereo not shown) [Example 169, 6-Cyclopentyl-6-[2-(2,4-dimethoxy-phenyl)-ethyl]-3-phenylacetyl-dihydro-pyran-2,4-dione]",10 to 50
9,"O=C(Cc1ccccc1)C1C(=O)CC(CCc2cccc(Cl)c2)(C2CCCC2)OC1=O (stereo not shown) [Example 170, 6-[2-(3-Chloro-phenyl)-ethyl]-6-cyclopentyl-3-phenylacetyl-dihydro-pyran-2,4-dione]",10 to 50
10,"COc1ccc(CCC2(C3CCCC3)CC(=O)C(C(=O)Cc3ccccc3)C(=O)O2)cc1 (stereo not shown) [Example 171, 6-Cyclopentyl-6-[2-(4-methoxy-phenyl)-ethyl]-3-phenylacetyl-dihydro-pyran-2,4-dione]",10 to 50
11,"COc1ccc(CCC2(C3CCCC3)CC(=O)C(C(=O)Cc3cccnc3)C(=O)O2)c(OC)c1 (stereo not shown) [Example 172, 6-Cyclopentyl-6-[2-(2,4-dimethoxy-phenyl)-ethyl]-3-(2-pyridin-3-yl-acetyl)-dihydro-pyran-2,4-dione]",1 to 10
12,"COc1ccc(CCC2(C3CCCC3)CC(=O)C(C(=O)Cc3cccnc3)C(=O)O2)cc1 (stereo not shown) [Example 173, 6-Cyclopentyl-6-[2-(4-methoxy-phenyl)-ethyl]-3-(2-pyridin-3-yl-acetyl)-dihydro-pyran-2,4-dione]",1 to 10
13,"O=C(Cc1cccnc1)C1C(=O)CC(CCc2cccc(Cl)c2)(C2CCCC2)OC1=O (stereo not shown) [Example 174, 6-[2-(3-Chloro-phenyl)-ethyl]-6-cyclopentyl-3-(2-pyridin-3-yl-acetyl)-dihydro-pyran-2,4-dione]",1 to 10
14,"COc1ccc(CCC2(C3CCCC3)CC(=O)C(C(=O)c3ccccc3)C(=O)O2)c(OC)c1 (stereo not shown) [Example 175, 3-Benzoyl-6-cyclopentyl-6-[2-(2,4-dimethoxy-phenyl)-ethyl]-dihydro-pyran-2,4-dione]",10 to 50
15,"CC(C)(C)c1cc2nc(N)sc2cc1SC1=C(O)CC(C2CCCC2)(C2CCCC2)OC1=O [Example 183, 3-(2-Amino-5-tert-butyl-benzothiazol-6-ylsulfanyl)-6,6-dicyclopentyl-4-hydroxy-5,6-dihydro-pyran-2-one]",10 to 50

# Same assay, conditions: primer/template-directed transcription, 30 minutes at 30° C.; read-out: IC50(μM) Category
row,SMILES,IC50 [µM]
1,"COc1ccc(CCC2(C3CCCC3)CC(=O)C(Cc3ccccc3)C(=O)O2)cc1Cl (stereo not shown) [Example 178, 3-Benzyl-6-[2-(3-chloro-4-methoxy-phenyl)-ethyl]-6-cyclopentyl-dihydro-pyran-2,4-dione]",0.6
